Results published in EP3381898A1, “SYMMETRICAL TRIS-ARYL-AMIDE DERIVATIVES AND THEIR USE AS ANTI-HEPARANASE” (priority 2017, dated 2018).
Where a name gives a salt, the structure may show the parent alone.

The molecules below were run against T1, heparanase (Homo sapiens, UniProt Q9Y251) (assay: AGA*IA assay: heparanase-catalyzed fondaparinux cleavage, colorimetric (WST-1)). Conditions: Table 1; range activity classes, AGA*IA test on Fondaparinux; read-out: AGAIA assay IC50.
T1 sequence (Q9Y251 158-543 limits assumed): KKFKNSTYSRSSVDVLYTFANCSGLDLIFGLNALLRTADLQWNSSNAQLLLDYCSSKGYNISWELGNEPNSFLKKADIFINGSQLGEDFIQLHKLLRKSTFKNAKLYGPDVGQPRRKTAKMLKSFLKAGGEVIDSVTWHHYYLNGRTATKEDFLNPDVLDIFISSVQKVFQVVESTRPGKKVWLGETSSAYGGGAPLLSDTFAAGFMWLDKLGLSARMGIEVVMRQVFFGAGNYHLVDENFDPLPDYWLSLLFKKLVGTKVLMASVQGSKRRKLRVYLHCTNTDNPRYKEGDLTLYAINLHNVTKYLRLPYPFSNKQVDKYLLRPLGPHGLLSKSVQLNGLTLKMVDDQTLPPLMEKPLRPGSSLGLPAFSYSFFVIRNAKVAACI
T1 sequence (Q9Y251 36-109 limits assumed): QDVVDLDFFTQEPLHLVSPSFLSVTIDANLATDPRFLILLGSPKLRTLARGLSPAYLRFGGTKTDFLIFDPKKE
Assay type: biochemical
Procedure: All compounds were tested in a simple, accurate and robust microplate assay based on the cleavage of the synthetic heparin fragment, the pentasaccharide Fondaparinux (AGA*IA). This assay was originally developed by Hammond and coworkers (Hammond E, Li CP, Ferro V. Development of a colorimetric assay for heparanase activity suitable for kinetic analysis and inhibitor screening. Anal. Biochem. 396(1), 112-116 (2010)), where Fondaparinux corresponds to the methyl glycoside of the antithrombin III (ATIII)-activating pentasaccharide sequence of heparin. Fondaparinux is cleaved by heparanase to generate a reducing disaccharide, which can be quantitatively measured via a colorimetric or a fluorescence assay, the last by the fluorescent sensor polymer-H [Schiemann S, Lühn S, Alban S. Development of both colorimetric and fluorescence heparinase activity assays using fondaparinux as substrate. Anal. Biochem. 427(1), 82-89 (2012)].
The assay measures the appearance of the disaccharide product of heparanase-catalyzed fondaparinux cleavage colorimetrically using the tetrazolium salt WST-1. Assay was essentially performed as described with minor modifications. Briefly, NUNC ELISA 96-well plates were pre-treated with a solution of 4% BSA (bovin serum albumin) in phosphate-buffered saline containing 0.05% Tween 20 (PBST), for 2 h at 37°C, then washed three times with PBST, dried by tapping on paper towel and stored at -20°C. Before use, once again, the plates were washed with PBST.
Assay was carried out with 100 µl/well of assay solution containing 40 mM sodium acetate buffer (pH 5.0), 100 µM fondaparinux, 2.5 nM heparanase and serial dilutions of test compounds (tested in triplicate). Plates were sealed with adhesive tape and incubated, in the dark, for 3 h at 37°C, followed by development with 1.69 mM of the tetrazolium salt WST-1 solution in 0.1 M NaOH, for 1 h at 60°C. Then, the absorbance at 560 nm was measured through a microplate reader (Victor 3, Perkin Elmer).
Finally, the measurements were corrected by subtracting both the reagent background and the inner absorbance value of test compound.

Row | Structure (SMILES) | IC50
1 | CC(C)CC(NC(=O)Cc1cccc(NC(=O)c2cc(NC(=O)c3cccc(NC(=O)Nc4cccc(C(=O)Nc5cc(C(=O)Nc6cccc(CC(=O)NC(CC(C)C)C(=O)O)c6)n(C)c5)c4)c3)cn2C)c1)C(=O)O (centres unmarked) [Compound 12a, 2,2'-{carbonylbis[imino-3,1-phenylenecarbonylimino(1-methyl-1H-pyrrole-4,2-diyl)carbonylimino-3,1-phenylene(1-oxoethane-2,1-diyl)imino]}bis(4-methylpentanoic acid)] | 1 to 20 µM
2 | CC(C)C[C@H](NC(=O)Cc1cccc(NC(=O)c2cc(NC(=O)c3cccc(NC(=O)Nc4cccc(C(=O)Nc5cc(C(=O)Nc6cccc(CC(=O)N[C@@H](CC(C)C)B(O)O)c6)n(C)c5)c4)c3)cn2C)c1)B(O)O [Compound 43, ((1R,1'R)-((2,2'-(((4,4'-((3,3'-(Carbonylbis(azanediyl))bis(benzoyl))bis(azanediyl))bis(1-methyl-1H-pyrrole-4,2-diyl-2-carbonyl))bis(azanediyl))bis(3,1-phenylene))bis(acetyl))bis(azanediyl))bis(3-methylbutane-1,1-diyl))diboronic acid] | 1 to 20 µM
3 | Cn1cc(NC(=O)c2ccc(Oc3ccc(C(=O)Nc4cc(C(=O)Nc5cccc(CC(=O)N[C@@H](CCCCN)C(=O)O)c5)n(C)c4)cc3)cc2)cc1C(=O)Nc1cccc(CC(=O)N[C@@H](CCCCN)C(=O)O)c1 [Compound 36c, (2S,2'S)-2,2'-((2,2'-(((4,4'-((4,4'-oxybis(benzoyl))bis(azanediyl))bis(1-methyl-1H-pyrrole-4,2-diyl-2-carbonyl))bis(azanediyl))bis(3,1-phenylene))bis(acetyl))bis(azanediyl))bis(6-aminohexanoic acid) dihydrochloride] | 1 to 20 µM
4 | CC(NC(=O)Cc1cccc(NC(=O)c2cc(NC(=O)c3cccc(NC(=O)Nc4cccc(C(=O)Nc5cc(C(=O)Nc6cccc(CC(=O)NC(C)C(=O)O)c6)n(C)c5)c4)c3)cn2C)c1)C(=O)O (centres unmarked) [Compound 12d, 2,2'-{carbonylbis[imino-3,1-phenylenecarbonylimino(1-methyl-1H-pyrrole-4,2-diyl)carbonylimino-3,1-phenylene(1-oxoethane-2,1-diyl)imino]}dipropanoic acid] | 1 to 20 µM
5 | CC(C)C[C@H](NC(=O)CNC(=O)Cc1cccc(NC(=O)c2cc(NC(=O)c3cc(NC(=O)Nc4cc(C(=O)Nc5cc(C(=O)Nc6cccc(CC(=O)NCC(=O)N[C@@H](CC(C)C)B(O)O)c6)n(C)c5)n(C)c4)cn3C)cn2C)c1)B(O)O [Compound 46, ((1R,1'R)-((2,2'-((2,2'-(((4,4'-((4,4'-(carbonylbis(azanediyl))bis(1-methyl-1H-pyrrole-4,2-diyl-2-carbonyl))bis(azanediyl))bis(1-methyl-1H-pyrrole-4,2-diyl-2-carbonyl))bis(azanediyl))bis(3,1-phenylene))bis(acetyl))bis(azanediyl))bis(acetyl))bis(azanediyl))bis(3-methylbutane-1,1-diyl))diboronic acid] | 1 to 20 µM
6 | Cn1cc(NC(=O)Nc2cc(C(=O)Nc3cc(C(=O)Nc4cccc(CC(=O)N[C@@H](CCC(=O)O)C(=O)O)c4)n(C)c3)n(C)c2)cc1C(=O)Nc1cc(C(=O)Nc2cccc(CC(=O)N[C@@H](CCC(=O)O)C(=O)O)c2)n(C)c1 [Compound 17f, 2,2'-{carbonylbis[imino-3,1-phenylenecarbonylimino(1-methyl-1H-pyrrole-4,2-diyl)carbonylimino-3,1-phenylene(1-oxoethane-2,1-diyl)imino]}dipentandioic acid] | 1 to 20 µM
7 | CC(C)C[C@H](NC(=O)Cc1cccc(NC(=O)c2cc(NC(=O)c3cc(NC(=O)Nc4cc(C(=O)Nc5cc(C(=O)Nc6cccc(CC(=O)N[C@@H](CC(C)C)B(O)O)c6)n(C)c5)n(C)c4)cn3C)cn2C)c1)B(O)O [Compound 41, ((1R,1'R)-((2,2'-(((4,4'-((4,4'-(carbonylbis(azanediyl))bis(1-methyl-1H-pyrrole-4,2-diyl-2-carbonyl))bis(azanediyl))bis(1-methyl-1H-pyrrole-4,2-diyl-2-carbonyl))bis(azanediyl))bis(3,1-phenylene))bis(acetyl))bis(azanediyl))bis(3-methylbutane-1,1-diyl))diboronic acid] | 1 to 20 µM
8 | Cn1cc(NC(=O)c2ccc(Oc3ccc(C(=O)Nc4cc(C(=O)Nc5cccc(CC(=O)NCC(=O)O)c5)n(C)c4)cc3)cc2)cc1C(=O)Nc1cccc(CC(=O)NCC(=O)O)c1 [Compound 36b, 2,2'-((2,2'-(((4,4'-((4,4'-Oxybis(benzoyl))bis(azanediyl))bis(1-methyl-1H-pyrrole-2,2'-carbonyl))bis(azanediyl))bis(3,1-phenylene))bis(acetyl))bis(azanediyl))diacetic acid] | 1 to 20 µM
9 | Cn1cc(NC(=O)c2cccc(NC(=O)Nc3cccc(C(=O)Nc4cc(C(=O)Nc5cccc(CC(=O)NCC(=O)NCC(=O)O)c5)n(C)c4)c3)c2)cc1C(=O)Nc1cccc(CC(=O)NCC(=O)NCC(=O)O)c1 [Compound 13b, Disodium 2,2'-{carbonylbis[imino-3,1-phenylenecarbonylimino(1-methyl-1H-pyrrole-4,2-diyl)carbonylimino-3,1-phenylene(1-oxoethane-2,1-diyl)imino(1-oxoethane-2,1-diyl)imino]}diethanoate salt] | 1 to 20 µM
10 | CC(C)C[C@H](NC(=O)Cc1cccc(NC(=O)c2cc(NC(=O)c3ccc(Oc4ccc(C(=O)Nc5cc(C(=O)Nc6cccc(CC(=O)N[C@@H](CC(C)C)B(O)O)c6)n(C)c5)cc4)cc3)cn2C)c1)B(O)O [Compound 42, ((1R,1'R)-((2,2'-(((4,4'-((4,4'-Oxybis(benzoyl))bis(azanediyl))bis(1-methyl-1H-pyrrole-2,2'-carbonyl))bis(azanediyl))bis(3,1-phenylene))bis(acetyl))bis(azanediyl))bis(3-methylbutane-1,1-diyl))diboronic acid] | 1 to 20 µM
11 | C[C@H](NC(=O)Cc1cccc(NC(=O)c2cc(NC(=O)c3cc(NC(=O)Nc4cc(C(=O)Nc5cc(C(=O)Nc6cccc(CC(=O)N[C@@H](C)C(=O)O)c6)n(C)c5)n(C)c4)cn3C)cn2C)c1)C(=O)O [Compound 17d, 2,2'-{carbonylbis[imino(1-methyl-1H-pyrrole-4,2-diyl)carbonylimino(1-methyl-1H-pyrrole-4,2-diyl)carbonylimino-3,1-phenylene(1-oxoethane-2,1-diyl)imino]}dipropanoic acid] | 1 to 20 µM
12 | Cn1cc(NC(=O)c2cccc(NC(=O)Nc3cccc(C(=O)Nc4cc(C(=O)Nc5cccc(CC(=O)O)c5)n(C)c4)c3)c2)cc1C(=O)Nc1cccc(CC(=O)O)c1 [Compound 12h, 2,2'-(((4,4'-((3,3'-(Carbonylbis(azanediyl))bis(benzoyl))bis(azanediyl))bis(1-methyl-1H-pyrrole-4,2-diyl-2-carbonyl))bis(azanediyl))bis(3,1-phenylene))diacetic acid] | 1 to 20 µM
13 | Cn1cc(NC(=O)c2cccc(NC(=O)Nc3cccc(C(=O)Nc4cc(C(=O)Nc5cccc(CC(=O)N[C@@H](CCC(=O)O)C(=O)O)c5)n(C)c4)c3)c2)cc1C(=O)Nc1cccc(CC(=O)N[C@@H](CCC(=O)O)C(=O)O)c1 [Compound 12f, 2,2'-{carbonylbis[imino-3,1-phenylenecarbonylimino(1-methyl-1H-pyrrole-4,2-diyl)carbonylimino-3,1-phenylene(1-oxoethane-2,1-diyl)imino]}dipentandioic acid] | 1 to 20 µM
14 | CC(C)C[C@H](NC(=O)CNC(=O)Cc1cccc(NC(=O)c2cc(NC(=O)c3cccc(NC(=O)Nc4cccc(C(=O)Nc5cc(C(=O)Nc6cccc(CC(=O)NCC(=O)N[C@@H](CC(C)C)B(O)O)c6)n(C)c5)c4)c3)cn2C)c1)B(O)O [Compound 47, ((1R,1'R)-((2,2'-((2,2'-(((4,4'-((3,3'-(Carbonylbis(azanediyl))bis(benzoyl))bis(azanediyl))bis(1-methyl-1H-pyrrole-4,2-diyl-2-carbonyl))bis(azanediyl))bis(3,1-phenylene))bis(acetyl))bis(azanediyl))bis(acetyl))bis(azanediyl))bis(3-methylbutane-1,1-diyl))diboronic acid] | 1 to 20 µM
